In patent publication US11833204B2, “Visible light-activatable nanoparticles for cancer immunotherapy and use thereof” (KOREA INSTITUTE OF SCIENCE AND TECHNOLOGY, priority 2021, dated 2023):

How the values were obtained:
[1] = Stability of LT-NPs in mouse plasma (size by DLS); assay type: in vitro ADME, BALB/c mice; conditions: BALB/c mouse plasma, 0-72 h
Procedure: In this example, the stability of the self-assembled nanoparticles (LT-NPs) in a body fluid was determined. To this end, the self-assembled nanoparticles (LT-NPs) were stored in plasma samples from BALB/c mice for 0, 1, 3, 6, 24, 48, and 72 h and their sizes were measured by dynamic light scattering (DLS).

CT26 cells [2] = assay: Intracellular behaviour in CT26 cancer cells (confocal microscopy); assay type: cell-based
Procedure: (§1) The following experiment was conducted to evaluate the intracellular behaviors of the self-assembled nanoparticles (LT-NPs). First, 1×10^5 CT26 cells or H9C2 cells were plated in a 35 mm cell culture dish, treated with the self-assembled nanoparticles (LT-NPs, 5 μM) prepared in Example 1, and cultured for 24 h. Thereafter, cells were washed with Dulbecco's PBS (DPBS), fixed in 4% formaldehyde for 10 min, stained with 4′,6-diamidino-2-phenylindole (DAPI) for 5 min, and analyzed with a Leica TCS SP8 confocal microscope (Leica Microsystems GmbH).

H9C2 cells = assay: Intracellular behaviour in H9C2 cardiomyocytes (confocal microscopy); assay type: cell-based; conditions: H9C2, 5 μM, 24 h
Procedure: as §1

CT26 cells [3] = assay: Immunogenic cell death: calreticulin expression; assay type: cell-based; conditions: CT26, 5 μM, 24 h, +L/−L
Procedure: First, CT26 cells were plated in 35 mm cell culture dishes at a density of 1×10^5 cells/dish and doxorubicin (DOX) (5 μM), verteporfin (VPF) (5 μM) or the self-assembled nanoparticles (LT-NPs) (5 μM) were added to each dish. After 24-h culture, one half was exposed by irradiation with visible light using a 671 nm laser at 40 mW for 250 sec (+L) and the other half was not irradiated with visible light for comparison (−L). The immunogenic cell death of the self-assembled nanoparticles (LT-NPs) was evaluated using the cells and the cell culture media.
Cells were stained with APC-conjugated CRT antibody for 12 h and observed with a confocal fluorescence microscope.

CT26 cells [4] = assay: CT26 cell viability (CCK) after visible light irradiation; assay type: cell-based; conditions: CT26, 0-10 μM, 24 h, 671 nm laser 40 mW 250 sec
Procedure: After CT26 cells were plated in a 96-well plate at a density of 5×10^3 cells/well, the wells were treated with doxorubicin (DOX) (0, 0.01, 0.1, 1, and or 10 μM), verteporfin (VPF) (0, 0.01, 0.1, 1, and 10 μM), mixtures thereof (DOX+VPF), and the self-assembled nanoparticles (LT-NPs) (0, 0.01, 0.1, 1, and 10 μM). After culture for 24 h, cells were exposed by irradiation with visible light using a 671 nm laser at 40 mW for 250 sec. Then, a cell culture medium containing […] of CCK solution was added to each well. Cells were further cultured for 20 min and the absorbance of the 96-well plate was measured at 450 nm on a VERSAmax™ microplate reader (Molecular Devices Corp., Sunnyvale, Calif.).

cathepsin B = cathepsin B (Homo sapiens, UniProt P07858); assay: Cleavage of LT-NPs by cathepsin B (RP-HPLC, fluorescence, TEM); assay type: biochemical
Procedure: (§2) The self-assembled nanoparticles (LT-NPs) prepared in Example 1, doxorubicin (DOX), and verteporfin (VPF) were used as samples. 1 mg of each sample was mixed with physiological saline (1 mL). […] The self-assembled nanoparticles (LT-NPs) were mixed with cathepsin B (Cat-B) protease (50 μg/mL). The mixture was allowed to react for 24 h.
In this example, the activation of the self-assembled nanoparticles (LT-NPs) by cathepsin B (Cat-B) was determined. To this end, an experimental sample and a comparative sample were prepared and allowed to react in an incubator at 37° C. Specific cleavages by cathepsin B were evaluated at reaction times of 0, 9, and 24 h by reversed phase high-performance liquid chromatography (RT-HPLC).
Experimental sample (Cat-B): The self-assembled nanoparticles (LT-NPs) (10 μM) prepared in Example 1 were mixed with a 2-(N-morpholine)-ethanesulphonic acid (MES) buffer (200 μL) containing cathepsin B (10 μg).
Comparative sample (Cat-B+inhibitor): The self-assembled nanoparticles (LT-NPs) (10 μM) prepared in Example 1 were mixed with a 2-(N-morpholine)-ethanesulphonic acid (MES) buffer (200 μL) containing cathepsin B (10 μg) and a cathepsin B inhibitor (Z-FA-FMK, 50 μM).

[5] = Morphological analysis by transmission electron microscopy in saline; assay type: physicochemical; conditions: 1 mg in 1 mL physiological saline
Procedure: as §2

[6] = system: spleen cells isolated from Balb/c mice; assay: Immune cell activation: treated CT26 cells co-cultured with spleen cells (flow cytometry); assay type: cell-based; conditions: 5 μM, co-culture with spleen cells 24 h; versus doxorubicin or verteporfin alone
Procedure: First, CT26 cells were plated in 100-pi cell culture dishes at a density of 1×10^6 cells/dish and cultured for stabilization for 24 h. Doxorubicin (DOX) (5 μM), verteporfin (VPF) […] or the self-assembled nanoparticles (LT-NPs) (5 μM) were added to each dish. After 24-h culture, one half was exposed by irradiation with visible light using a 671 nm laser at 40 mW for 250 sec (+L) and the other half was not irradiated with visible light for comparison (−L). 1×10^6 spleen cells isolated from Balb/c mice were added to each sample, followed by co-culture for 24 h (FIG. 4I).
The degrees of differentiation into mature dendritic cells and activated T cells in each sample were analyzed using a flow cytometer.

Compound: C=CC1=C(C)/C2=C/C3=NC(Cc4[nH]c(c(CCCCC(=O)OC)c4C)CC4N=C(CC1N2)C(C)=C4CCC(=O)N[C@H](Cc1ccccc1)C(=O)N[C@@H](CCCNC(=N)N)C(=O)N[C@H](CCCNC(=N)N)C(=O)NCC(=O)NC1C[C@@H](OC2C[C@](O)(C(=O)CO)Cc4c(O)c5c(c(O)c42)C(=O)c2c(OC)cccc2C5=O)O[C@@H](C)[C@H]1O)[C@@]1(C)C3=CC=C(C(=O)OC)[C@@H]1C(=O)OC (stereo partly shown) [LT-NPs, VPF-FRRG(SEQ ID NO: 1)-DOX]
- time-dependent change in size in mouse plasma [1]: stably maintained their morphology in the body fluid
- intracellular cleavage into doxorubicin and verteporfin (CT26 cells [2]; CT26, 5 μM, 24 h): cleaved specifically to cancer cells
- presence in cells (CT26 cells [2]; CT26, 5 μM, 24 h): observed in both cardiomyocytes (H9C2) and cancer cells (CT26)
- intracellular degradation with cathepsin B inhibitor (CT26 cells [2]; CT26 treated with cathepsin B inhibitor): not degraded and remained stable in the cytoplasm
- presence in cells (H9C2 cells): observed in both cardiomyocytes (H9C2) and cancer cells (CT26)
- state in normal cells (H9C2 cells): in a stable state in normal cells
- calreticulin expression (CT26 cells [3]): Significantly higher
- cell viability versus doxorubicin and verteporfin (CT26 cells [4]): no significant differences
- cleavage by cathepsin B (cathepsin B; 10 μM, cathepsin B 10 μg in MES buffer, 37° C., RP-HPLC and fluorescence): cleaved by cathepsin B to release doxorubicin and the photosensitizer
- morphology after reaction with cathepsin B (TEM) (cathepsin B; Cat-B 50 μg/mL, 24 h): degraded by cathepsin B
- morphology in physiological saline (TEM) [5]: dispersed without aggregation in saline
- degree of differentiation into activated T cells [6]: significantly higher
- degree of differentiation into mature dendritic cells [6]: significantly higher
